In experiment [1] the target is T1, Apis mellifera AmelF3 (SEQ ID NO: 39) variant Tyr76Ala (Apis mellifera, UniProt A0ACM8QI31, Y95A).
T1 construct: sponge or film
Nature of the experiment: Binding of chelates to AmelF3 Tyr76Ala sponges or films. The conditions noted are these: sponge washed with aqueous methanol, qualitative. The method, then: Site directed mutagenesis of honeybee silk proteins was carried using methods known to the person skilled in the art. For example, to generate AmelF3 Tyr76Ala, the forward primer 5′-[…]-3′ (SEQ ID NO: 80) with the corresponding reverse primer was employed and site directed mutagenesis was carried out using Pfx 50 DNA polymerase from Invitrogen following the Pfx50 manufactures instructions. All AmelF3 mutants were expressed and purified using a similar procedure as the unmodified AmelF3 silk protein. To generate AmelF3 Tyr76His, the forward primer 5′-[…]-3′ (SEQ ID NO: 81) with the corresponding reverse primer was employed. To generate AmelF3 Ala97His, the forward primer 5′-[…]-3′ (SEQ ID NO: 82) was used.
To test whether Tyr76 was indeed the coordinating ligand, the present inventors replaced Tyr76 with an alanine using site directed mutagenesis of the AmelF3 silk gene.

Experiment [2] deals with T2, recombinant honeybee (Apis mellifera) silk protein AmelF3, unmodified, SEQ ID NO: 39 (Apis mellifera, UniProt A0ACM8QI31).
T2 construct: sponges and films
Nature of the experiment: Binding of macrocycles/chelates to AmelF3 sponges or films (colour retained after washing, UV/Vis). The conditions noted are these: qualitative; for binding to silk protein (in words): sponge or film; for Binding properties: sponge, macrocycle in excess, retention of colour after washing. The method, then: Full length, recombinant honeybee silk proteins (AmelF3) without affinity purification tags, were produced by fermentation in Escherichia coli as described in Weisman et al. (2010). Full length, recombinant Weaver Ant/Green Ant (Oecophylla smaragdina) silk proteins (GA1, GA2, GA3, GA4) without affinity purification tags, were produced by fermentation in Escherichia coli following the same procedures as outlined in Weisman et al. (2010).
(§1) AmelF3 sponges were prepared as described in example 1. […] The colour change observed with honeybee silk indicates a change in the coordination of the iron metal centre within the haem group, producing a material with a similar coordination to red haemoglobin. The colour was not removed by extensive washing with 70% methanol, 0.1M HCl or 0.1M NaCl.
An embodiment of the composition of the present invention was formed by co-drying a solution of AmelF3 and haem b. Briefly, 2 mg haem b and 20 mg AmelF3 silk sponge was dissolved in 1 mL of HFIP overnight at room temperature. The solution was aliquoted into either a cuvette or 24-well plate and dried at room temperature. The dried film was soaked overnight in 70% methanol to make the film insoluble in water.
Alternatively, haem b was ‘leached’ into a pre-formed film. The AmelF3 material was formed as described in example 1. The silk material was soaked in a solution of haem b (0.5 mg/mL; haem b in excess) in 70% methanol solution for between 1 and 48 hours followed by washing with 70% methanol to remove any unbound haem b and dried at room temperature.
AmelF3 films with different ratios of haem b to AmelF3 were prepared by co-drying haem and AmelF3 HFIP solutions. At low haem loadings (haem:protein molar ratios of 1:1 and 1:2), a sharp Soret peak at 404 nm was observed, indicative of all the haem being coordinated (FIG. 3). As the concentration of haem b relative to the protein was increased, the Soret peak broadened and shifted to lower wavelengths indicating an increase in the amount of uncoordinated haem (FIG. 3).
(§2) The ability of sponges generated from recombinant AmelF3 to bind a range of macrocyles was tested by adding a solution of the macrocmacrocycle containing an excess of the macrocycle to be tested to the AmelF3 sponge and observing the colour of the sponge and whether the sponge retained colour after washing. The strength of macrocycle binding was assessed qualitatively by assessing the intensity of the colour retained by the sponge after washing. Strong binding to the sponge refers to the finding that the macrocycle cannot be washed out with aqueous methanol, organic solvents, 0.1 M HCl or 0.1 M NaOH.
(§3) Films generated from recombinant honeybee silk protein AmelF3 containing dicyanocobyrinic acid heptamethyl ester were prepared as described in example 3. UV/Vis spectrum were recorded for a film generated from recombinant AmelF3 containing dicyanocobyrinic acid heptamethyl ester and a solution of dicyanocobyrinic acid heptamethyl ester without AmelF3 (FIG. 8).

The test system of experiment [3] is materials generated from recombinant honeybee silk proteins (AmelF3 sponge). Nature of the experiment: Binding of macrocycles to recombinant AmelF3 honeybee silk sponges, judged by colour retained after washing. Also noted: species or system Apis mellifera. The conditions noted are these: excess macrocycle in solution, intensity of colour retained after washing. The method, then:
as §1, §2

The next experiment has as its system AmelF3 in film. Nature of the experiment: Binding of dicyanocobyrinic acid heptamethyl ester to AmelF3 film (UV/Vis). The conditions noted are these: peak shift from 370 to 360. Also noted: species or system Apis mellifera. The protocol: as §3
Experiment [4] has as its target T3, recombinant honeybee (Apis mellifera) silk protein AmelF3, SEQ ID NO: 39, containing bound haem b (film) (Apis mellifera, UniProt A0ACM8QI31).
T3 sequence (A0ACM8QI31 20-335): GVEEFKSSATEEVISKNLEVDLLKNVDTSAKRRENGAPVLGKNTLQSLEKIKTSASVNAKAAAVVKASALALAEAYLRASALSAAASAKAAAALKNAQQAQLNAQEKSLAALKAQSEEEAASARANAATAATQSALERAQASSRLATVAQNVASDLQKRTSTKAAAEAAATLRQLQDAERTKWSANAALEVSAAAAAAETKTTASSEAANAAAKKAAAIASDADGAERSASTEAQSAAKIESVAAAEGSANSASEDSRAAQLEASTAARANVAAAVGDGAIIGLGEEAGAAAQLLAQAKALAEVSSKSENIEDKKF
Nature of the experiment: NO binding to reduced AmelF3-haem b film (UV/Vis). To be noted: NO added as diethylamine NONOate to dithionite-reduced film, 50 mM phosphate pH 7; decrease in absorbance at 420 nm, sigmoidal fit modified from Hill equation; read-out: dissociation constant. From the text:
A. UV/Vis spectra obtained when silk protein films generated from recombinant honeybee silk protein AmelF3 were bound to increasing NO concentrations. B. Ratio change of absorbance change at 420 nm as NO concentrations are increased. Either the decrease in absorbance at 420 nm or increase in absorbance at 390 nm can be used. The decrease in absorbance at 420 nm can be converted into the fraction of nitric oxide binding site occupied by NO and plotted against NO concentration, and fitted to a sigmoidal curve modified from the Hill equation with a dissociation constant of 6.7 μM and a limit of detection of ˜1 μM.
AmelF3-haem b film was used as the porphyrin-silk film. Freshly prepared sodium dithionite (100 mM) in 50 mM phosphate buffer (pH 7) were used as the reducing agent. 10-100 μL was added to a 50 mM phosphate buffer (pH 7) covering the porphyrin-silk film. Sodium persulfate was used at the oxidising agent a similar manner to sodium dithionite. […] Changes in the UV/Vis spectrum were monitored to determine redox states and measure NO binding (FIGS. 10A and 10B). […]
Exposure to increasing NO concentration caused the Soret peak to shift from 421 nm to 395 nm. From 0-7 μM, there was a linear relationship between the decrease in absorbance at 421 nm and the concentration of NO, with a limit of detection for NO of 1 μM.

T1 sequence (A0ACM8QI31 entry or part of it Y95A): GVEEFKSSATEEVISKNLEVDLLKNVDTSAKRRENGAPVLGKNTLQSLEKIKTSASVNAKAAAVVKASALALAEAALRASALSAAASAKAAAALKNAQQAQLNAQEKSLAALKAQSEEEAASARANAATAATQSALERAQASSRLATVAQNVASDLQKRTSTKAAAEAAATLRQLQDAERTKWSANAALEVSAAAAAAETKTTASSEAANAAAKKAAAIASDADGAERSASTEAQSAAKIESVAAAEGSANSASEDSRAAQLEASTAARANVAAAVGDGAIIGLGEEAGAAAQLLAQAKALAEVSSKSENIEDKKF

As to `COC(=O)CC[C@@H]1C2=NC(=C\C3=NC(=C(/C)C4=N[C@@](C)([C@@H]5[N-]/C(=C\2C)[C@](C)(CCC(=O)OC)[C@H]5CC(=O)OC)[C@@](C)(CC(=O)OC)[C@@H]4CCC(=O)OC)/[C@@](C)(CC(=O)OC)[C@@H]3CCC(=O)OC)/C1(C)C.[C-]#N.[C-]#N.[Co+3]` [Dicyanocobyrinic acid heptamethyl ester, dicyanocobyrinic acid heptamethyl ester], the “binding to silk protein (in words)” value in experiment [1] is “did not bind”; in experiment [2], “strongly blind to AmelF3”.
For `CCC1=C(C)c2cc3[nH]c(cc4[nH]c(cc5nc(cc1n2)C(C)=C5CC)c(C)c4CC)c(C)c3CC` [drawing 2], the Binding properties entry in experiment [2] is given as “Does not bind”.
Turning to `COC(=O)CCC1=C(C)c2cc3[nH]c(cc4nc(cc5[nH]c(cc1n2)c(CCC(=O)OC)c5C)C(S(=O)(=O)O)=C4C)c(S(=O)(=O)O)c3C` [drawing 4], the Binding properties entry in experiment [2] and in experiment [3] was “Weak binding” in each case.
Take `C=CC1=C(C)c2cc3[nH]c(cc4nc(cc5[nH]c(cc1n2)c(C)c5CCC(=O)O)C(CCC(=O)O)=C4C)c(C)c3C=C` [drawing 1]: the Binding properties result in experiment [2] and in experiment [3] was “Strongly binds to silk” in each case.
As for `O=S(=O)(O)c1ccc2c(c1)-c1nc-2nc2[nH]c(nc3nc(nc4[nH]c(n1)c1ccc(S(=O)(=O)O)cc41)-c1ccc(S(=O)(=O)O)cc1-3)c1ccc(S(=O)(=O)O)cc21` [phthalocyanine tetrasulfonic acid], the Binding properties entry in experiment [2] was “Strongly binds”.
On to `C1=CC2C3=NC(=N\C4N/C(=N\C5=NC(=N\C6N/C(=N\3)c3ccccc36)/C3C=CC=CC53)c3ccccc34)/C2C=C1` (stereo not drawn) [drawing 5], for which the Binding properties result in experiment [3] is recorded as “Does not bind”.
In the case of `COC(=O)CC[C@@H]1C2=NC(=C\C3=NC(=C(/C)C4=N[C@@](C)([C@@H]5[N-]/C(=C\2C)[C@](C)(CCC(=O)OC)[C@H]5CC(=O)OC)[C@@](C)(CC(=O)OC)[C@@H]4CCC(=O)OC)/[C@@](C)(CC(=O)OC)[C@@H]3CCC(=O)OC)/C1(C)C.[C-]#N.[C-]#N.[Co+3]` [Dicyanocobyrinic acid heptamethyl ester], the “binding to AmelF3 in film” value in the experiment on AmelF3 in film was “strongly blind”.
For `C=Cc1c(C)c2cc3[nH]c(cc4nc(cc5nc(cc1[nH]2)C(C)=C5CCC(=O)OC)C(CCC(=O)OC)=C4C)c(C)c3C=C`, the Binding properties entry in experiment [2] is “Does not bind”.
Take `O=S(=O)(O)c1ccc2c(c1)-c1nc-2nc2[nH]c(nc3nc(nc4[nH]c(n1)c1ccc(S(=O)(=O)O)cc41)-c1ccc(S(=O)(=O)O)cc1-3)c1ccc(S(=O)(=O)O)cc21.[Zn+2]` [Zn phthalocyanine tetrasulfonic acid, zinc phthalocyanine tetrasulfonic acid]: the “binding to silk protein (in words)” value in experiment [2] is listed as “can bind”.
In the case of `[N]=O` [NO, nitric oxide], in experiment [4], the Kd was found to be 6.7 µM.
In the case of `CCC1=C(C)c2cc3[nH]c(cc4[nH]c(cc5nc(cc1n2)C(C)=C5CC)c(C)c4CC)c(C)c3CC` [etioporphryin I], in experiment [2], the “binding to silk protein (in words)” value is given as “no binding is obtained”.
On the same count and under the same terms, the result for `C1=CC2C3=NC(=N\C4N/C(=N\C5=NC(=N\C6N/C(=N\3)c3ccccc36)/C3C=CC=CC53)c3ccccc34)/C2C=C1` (stereo not drawn) [drawing 5, Phthalocyanine] reads “no binding is obtained”.
